Measurements from ChEMBL document CHEMBL5137082, “Discovery of a Novel Vascular Disrupting Agent Inhibiting Tubulin Polymerization and HDACs with Potent Antitumor Effects” (J Med Chem, 2022).
Active and inactive are the calls of the source. The calls are words filed in the database; no cut-off is given here.

How the values were obtained:
HepG2 [1] = assay: Induction of G2/M phase cell cycle arrest in human HepG2 cells assessed as decrease in cyclin B1 protein expression at 7.5 to 30 nM measured after 24 hrs by western blot analysis; type: functional, cell-based; conditions: dose 7.5-30 nM
H22 = assay: Antivascular activity against mouse H22 cells allografted in ICR mouse assessed as inhibition of blood vessel formation at 20 mg/kg, iv administered qd measured after 21 days by immunohistochemistry analysis; type: functional, organism-based; conditions: time 21.0 day
HepG2 [2] = assay: Induction of apoptosis in human HepG2 cells assessed as upregulation of Bax protein expression measured after 24 hrs by Western blot analysis; type: functional, cell-based; conditions: dose 7.5-30 nM, DDE = dose-dependent effect
PC-3 = assay: Induction of apoptosis in human PC-3 cells assessed as mitochondrial membrane potential loss by measuring early apoptotic cells at 15 nM incubated for 48 hrs by JC1 staining based flow cytometry analysis (reference value: 6.50 +/- 0.17%); type: functional
HepG2 [3] = assay: Induction of apoptosis in human HepG2 cells assessed as necrotic cells at 7.5 nM incubated for 48 hrs by Annexin-V/PI-staining based flow cytometry (reference value: 1.43 +/- 0.26%); type: functional
[4] = Induction of apoptosis in ICR mouse cardiac tissue at 20 mg/kg, iv administered qd measured after 21 days by TUNEL assay; type: toxicity, organism-based; conditions: in vivo, 504 h, time 21 day
[5] = Metabolic stability in mouse liver microsomes assessed as intrinsic clearance at 1 uM in presence of NADPH measured per gram protein up to 60 mins by LC-MS/MS analysis; type: ADME, Microsome; conditions: 1 h
Histone deacetylase 1 = Histone deacetylase 1 (Homo sapiens, UniProt Q13547); assay: Inhibition of HDAC1 in human HeLa cells using BOC-K(Ac)-AMC as substrate measured after 30 mins by fluorescence based microtiter plate reader assay; type: cell-based
Histone deacetylase 1, sequence (Q13547 whole entry): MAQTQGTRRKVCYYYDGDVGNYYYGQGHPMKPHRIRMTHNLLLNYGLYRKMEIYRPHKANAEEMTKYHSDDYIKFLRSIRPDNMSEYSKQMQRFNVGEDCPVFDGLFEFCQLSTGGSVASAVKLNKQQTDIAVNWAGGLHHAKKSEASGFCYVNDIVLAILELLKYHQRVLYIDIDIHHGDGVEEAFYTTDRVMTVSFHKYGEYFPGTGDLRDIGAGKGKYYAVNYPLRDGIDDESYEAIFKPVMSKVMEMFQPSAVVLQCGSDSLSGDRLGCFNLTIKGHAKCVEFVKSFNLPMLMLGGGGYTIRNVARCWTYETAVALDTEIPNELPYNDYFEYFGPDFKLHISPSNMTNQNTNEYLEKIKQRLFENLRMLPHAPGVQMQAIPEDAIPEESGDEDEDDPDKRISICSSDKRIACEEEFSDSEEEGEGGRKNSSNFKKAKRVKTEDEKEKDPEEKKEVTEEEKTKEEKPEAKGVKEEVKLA

Histone deacetylase 3 = Histone deacetylase 3 (Homo sapiens, UniProt O15379); assay: Inhibition of HDAC3 in human HepG2 cells assessed as increase in level of acetyl histone H3substrate incubated for 24 hrs by chemiluminescence based Western blotting analysis; type: cell-based; conditions: dose 0.03-0.3 µM
Histone deacetylase 3, sequence (O15379 whole entry): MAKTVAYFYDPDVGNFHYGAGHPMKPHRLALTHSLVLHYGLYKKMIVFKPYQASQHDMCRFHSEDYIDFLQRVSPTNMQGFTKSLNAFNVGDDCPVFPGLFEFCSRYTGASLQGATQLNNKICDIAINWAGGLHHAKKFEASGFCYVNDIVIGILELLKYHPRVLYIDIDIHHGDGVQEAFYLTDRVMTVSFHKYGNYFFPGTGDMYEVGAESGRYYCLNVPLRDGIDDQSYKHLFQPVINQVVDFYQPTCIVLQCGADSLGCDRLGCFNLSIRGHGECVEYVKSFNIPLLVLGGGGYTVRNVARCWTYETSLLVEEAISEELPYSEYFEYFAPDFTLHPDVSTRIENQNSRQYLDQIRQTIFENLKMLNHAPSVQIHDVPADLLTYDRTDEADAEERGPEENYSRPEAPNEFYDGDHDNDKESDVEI

With `COc1ccc(CNC(=O)c2cc(F)ccc2N2CCOCC2)cc1/C=C/C(=O)NO` the Activity (HepG2 [1]) was “Active”, the Activity (H22) was “Active” and the Activity (HepG2 [2]) was “Dde”. For the same compound, the Activity (PC-3) was 35.4%, the Activity (HepG2 [3]) was 1.33% and the Activity [4] was “Non-Toxic”. For the same compound, the CLH [5] was 41.7 mL/min/g, the IC50 (Histone deacetylase 1) was 115 nM and the inhibition (Histone deacetylase 3) was “Active”.
